Results published in the OPERA property sets (Mansouri et al. 2018).

Row | SMILES | logP
1 | C#CCOC(=O)Nc1ccc(OCC)c(OCC)c1 | 2.68
2 | COC(=O)Nc1ccccc1Br | 2.3
3 | COC(=O)Nc1ccc(C#N)cc1 | 1.82
4 | CCCCc1ccc(NC(=O)OC)cc1 | 3.69
5 | CCOc1ccc(NC(=O)OCC(C)C)cc1OCC | 3.36
6 | COC(=O)Nc1ccccc1C(F)(F)F | 2.09
7 | CCCOC(=O)Nc1ccc(OCC)c(OCC)c1 | 2.93
8 | CCOc1ccc(NC(=O)OC)cc1OCC | 2.1
9 | CCOc1ccccc1NC(=O)OC | 2.43
10 | COC(=O)Nc1ccccc1OC | 1.84
11 | COC(=O)Nc1ccccc1F | 1.66
12 | COC(=O)Nc1ccccc1C | 1.69
13 | COC(=O)Nc1ccccc1Cl | 2.16
14 | COC(=O)Nc1ccccc1I | 2.44
15 | CCOc1ccc(NC(=O)OCCOC)cc1OCC | 2.27
16 | CCc1ccc(NC(=O)OC)cc1 | 2.72
17 | C=CCOC(=O)Nc1ccc(OCC)c(OCC)c1 | 2.75
18 | CCOc1ccc(NC(=O)OCc2ccccc2)cc1OCC | 3.29
19 | CCOc1ccc(NC(=O)OC)cc1 | 2.15
20 | COC(=O)Nc1ccc(OC)cc1 | 1.73
21 | CCOc1ccc(NC(=O)OCCC#N)cc1OCC | 2.07
22 | CCCCOC(=O)Nc1ccc(OCC)c(OCC)c1 | 3.46
23 | CCOc1ccc(NC(=O)OC(C)C)cc1OCC | 2.91
24 | CCOC(=O)Nc1ccc(OCC)c(OCC)c1 | 2.54
25 | CCOc1ccc(NC(=O)OC(CBr)CBr)cc1OCC | 3.5

The remaining lines, values ahead:

Row | logP | SMILES
26 | 3.03 | COC(=O)Nc1cccc(I)c1
27 | 1.75 | COC(=O)Nc1ccccc1
28 | 1.63 | COC(=O)Nc1cccc(C(C)=O)c1
29 | 2.31 | CCOc1cccc(NC(=O)OC)c1
30 | 2.55 | COC(=O)Nc1ccc(Cl)cc1
31 | 2.74 | COC(=O)Nc1cccc(C(F)(F)F)c1
32 | 1.92 | COC(=O)Nc1cccc(OC)c1
33 | 2.75 | COC(=O)Nc1cccc(Br)c1
34 | 1.95 | COC(=O)Nc1ccc(F)cc1
35 | 2.12 | COC(=O)Nc1ccc([N+](=O)[O-])cc1
36 | 2.29 | COC(=O)Nc1cccc(C)c1
37 | 2.74 | CCc1cccc(NC(=O)OC)c1
38 | 1.77 | COC(=O)Nc1cccc(C#N)c1
39 | 2.29 | COC(=O)Nc1ccc(C)cc1
40 | 2.1 | COC(=O)Nc1ccccc1[N+](=O)[O-]
41 | 2 | COC(=O)Nc1cccc([N+](=O)[O-])c1
